Test results from patent publication US20100168133A1, “USE OF SUBSTITUTED QUINOLINE DERIVATIVES FOR THE TREATMENT OF DRUG RESISTANT MYCOBACTERIAL DISEASES” (priority 2004, published 2010).
Converted amounts (≈) assume the structure as drawn.

System: 73 M. tuberculosis strains (41 fully susceptible, 32 MDR)
Assay: microbe, parasite or virus in culture
Format: cell-based

## COc1nc2ccc(Br)cc2cc1[C@@H](c1ccccc1)[C@@](O)(CCN(C)C)c1cccc2ccccc12 [Compound 12, (αS,βR)-6-bromo-α-[2-(dimethylamino)ethyl]-2-methoxy-α-1-naphthalenyl-β-phenyl-3-quinolineethanol]
  difference in MIC between fully susceptible and MDR M. tuberculosis strains: No difference in MIC
Mycobacterium tuberculosis, 504 h, the majority of the 73 strains, agar plates, 36° C., 3 weeks
  MIC: 0.032 µg/mL (≈ 0.0576 µM)
All the tested strains (73), agar plates, 36° C., 3 weeks
  concentrations at which no growth was seen: higher than 0.064 mg/L
